Measured values: ChEMBL document CHEMBL1135318 (Bioorg Med Chem Lett, 2002)

Assays:
[1] = molecular target: T1, Muscarinic acetylcholine receptor M3 (Homo sapiens, UniProt P20309); assay: Displacement of [3H]N-methylscopolamine from membrane preparation from CHO-K1 cells for Muscarinic acetylcholine receptor M3; format: cell membranes; conditions: concentration not given here
Target sequence in this assay (P20309 whole entry, looked up): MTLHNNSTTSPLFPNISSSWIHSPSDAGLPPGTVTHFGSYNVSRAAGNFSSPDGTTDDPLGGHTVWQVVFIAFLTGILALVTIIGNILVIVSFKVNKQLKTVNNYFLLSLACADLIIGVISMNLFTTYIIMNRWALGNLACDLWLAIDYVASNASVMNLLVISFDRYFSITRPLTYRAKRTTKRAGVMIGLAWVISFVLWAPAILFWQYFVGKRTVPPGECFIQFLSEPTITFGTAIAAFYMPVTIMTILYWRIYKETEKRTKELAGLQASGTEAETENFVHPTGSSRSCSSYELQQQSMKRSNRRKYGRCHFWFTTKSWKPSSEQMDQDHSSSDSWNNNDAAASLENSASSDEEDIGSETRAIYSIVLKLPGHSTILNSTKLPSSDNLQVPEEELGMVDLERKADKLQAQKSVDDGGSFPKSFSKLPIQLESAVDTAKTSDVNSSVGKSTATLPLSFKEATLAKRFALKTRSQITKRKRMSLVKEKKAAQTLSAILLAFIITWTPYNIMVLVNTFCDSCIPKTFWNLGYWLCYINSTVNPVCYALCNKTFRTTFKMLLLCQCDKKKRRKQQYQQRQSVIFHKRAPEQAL

[2] = molecular target: T2, Muscarinic acetylcholine receptor M2 (Homo sapiens) (UniProt P08172); assay: Displacement of [3H]N-methylscopolamine from membrane preparation from CHO-K1 cells for Muscarinic acetylcholine receptor M2; format: cell membranes; conditions: concentration not given here
T2 sequence (whole entry): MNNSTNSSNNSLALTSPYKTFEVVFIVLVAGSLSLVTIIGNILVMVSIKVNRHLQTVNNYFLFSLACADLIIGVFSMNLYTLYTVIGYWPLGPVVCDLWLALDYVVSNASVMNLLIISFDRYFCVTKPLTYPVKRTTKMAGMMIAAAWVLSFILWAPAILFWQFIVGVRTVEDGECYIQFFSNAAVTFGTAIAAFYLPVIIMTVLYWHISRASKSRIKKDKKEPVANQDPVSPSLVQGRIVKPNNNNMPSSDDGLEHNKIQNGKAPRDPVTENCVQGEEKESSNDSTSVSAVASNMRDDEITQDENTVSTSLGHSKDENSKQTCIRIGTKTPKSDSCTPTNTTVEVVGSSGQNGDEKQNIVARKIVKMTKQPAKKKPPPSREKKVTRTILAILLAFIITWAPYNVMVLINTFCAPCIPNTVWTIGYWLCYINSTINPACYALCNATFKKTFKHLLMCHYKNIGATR

[3] = molecular target: T3, Muscarinic acetylcholine receptor M2 (Homo sapiens, UniProt P08172); assay: In vitro affinity for muscarinic M2 receptor.
T3 sequence (P08172 whole entry): T2 sequence (whole entry)

[4] = molecular target: T1, Muscarinic acetylcholine receptor M3; assay: In vitro affinity for muscarinic M3 receptor.
Target sequence in this assay (P20309 whole entry): as the sequence (P20309 whole entry, looked up) above

[5] = molecular target: T1, Muscarinic acetylcholine receptor M3; assay: Displacement of [3H]N-methylscopolamine from membrane preparation from CHO-K1 cells for Muscarinic acetylcholine receptor M3; value given as 20-50%; format: cell membranes; conditions: concentration not given here
Target sequence in this assay (P20309 whole entry, looked up): as the sequence (P20309 whole entry, looked up) above

[6] = molecular target: T2, Muscarinic acetylcholine receptor M2 (Homo sapiens); assay: Displacement of [3H]N-methylscopolamine from membrane preparation from CHO-K1 cells for Muscarinic acetylcholine receptor M2; value given as 20-50%; format: cell membranes; conditions: concentration not given here

O=C(c1cccs1)N(C1CCC1)C1CCN(Cc2ccccc2)CC1
inhibition [1]: < 20% | inhibition [2]: < 20%

O=C(c1ccccc1)N(Cc1ccccc1)C1CCN(Cc2ccccc2)CC1
Ki [3]: 631 nM | Ki [4]: 158 nM

O=C(c1ccccc1)N(C1CCC1)C1CCN(Cc2ccccc2)CC1
inhibition [5]: 20% | inhibition [6]: 20%
